Where a name gives a salt, the structure may show the parent alone.

The subject of the test is mice (stretching and twisting provoked by intraperitoneal injection of acetic acid). Kind of test: Analgesic Activity: acetic acid-induced stretching test in mice (based on Koster et al). The test is classed as in vivo. The settings on record: Mus musculus, fasted 24 hours, test product oral 30 minutes before i.p. acetic acid (60 mg/kg), stretchings counted during 15 minutes after injection, read-out: AD50 (dose which reduced by 50% the number of stretching as compared to the controls). The procedure:
The test was based on that of Koster et al [Fed. Proc., Vol. 18 (1959) p. 412] wherein the intraperitoneal injection of acetic acid provokes in mice repeated stretching and twisting which persists for more than 6 hours and an analgesic prevents or suppresses this syndrom which is considered to be the exteriorization of a diffuse abdominal pain. A solution of 0.6% acetic acid in water containing 10% of arabic gum is used and the dose which causes the syndrom under these conditions is 0.01 ml/g or 60 mg/kg of acetic acid. The test products were orally administered 30 minutes before the intraperitoneal injection of acetic acid and the mice were fasted for 24 hours before the test.
For each dose and for the controls required in each test, groups of 5 mice were used and the stretchings were observed and counted for each mouse and added for each group, during a period of 15 minutes right after the injection. The AD50 or dose which reduced by 50% the number of stretching as compared to the controls was determined.
Regarding `O=C(OCCN1CCN(c2cccc(C(F)(F)F)c2)CC1)c1sccc1Nc1ccnc2c(C(F)(F)F)cccc12` [Example 1, 2-[4-(3-trifluoromethylphenyl)-1-piperazinyl]-ethyl 3-[8-trifluoromethyl-4-quinolylamino]-2-thiophene-carboxylate dihydrochloride], the ED50 was 20 mg/kg.

With `O=C(OCCN1CCN(c2ccc(Cl)cc2)CC1)c1sccc1Nc1ccnc2c(C(F)(F)F)cccc12` [Example 2, 2-[4-(4-chlorophenyl)-1-piperazinyl]-ethyl 3-(8-trifluoromethyl-4-quinolylamino)-2-thiophene-carboxylate], the ED50 was found to be 15 mg/kg.

Regarding `O=C(OCCN1CCN(c2cccc(C(F)(F)F)c2)CC1)c1sccc1Nc1ccnc2cc(Cl)ccc12` [Example 3, 2-[4-(3-trifluoromethylphenyl)-1-piperazinyl]-ethyl 3-(7-chloro-4-quinolylamino)-2-thiophene-carboxylate], the ED50 is 20 mg/kg.

The values above are taken from patent publication US4093724A, “Novel-3-(4-quinolylamino)-2-thiophene-carboxylates” (Roussel Uclaf, priority 1976, dated 1978).
